From patent US8124784B2, “Palladium metal complex” (Nagasaki University, priority 2008, dated 2012)

Assay: Solubility of the metal complex A in organic solvents
Format: physicochemical
Procedure: The solubility of the metal complex A in organic solvents was tested.

[Pd2Au2Cl2(μ-dmpz)4(dmpzH)2] [metal complex A]
solubility in organic solvent (acetone): insoluble
solubility in organic solvent (acetonitrile): insoluble
solubility in organic solvent (benzene): slightly soluble
solubility in organic solvent (chloroform): soluble
solubility in organic solvent (diethyl ether): insoluble
solubility in organic solvent (ethanol): insoluble
solubility in organic solvent (hexane): insoluble
solubility in organic solvent (methanol): insoluble
solubility in organic solvent (methylene chloride): soluble
solubility in organic solvent (toluene): slightly soluble
